# Test results published in PMC9738591, “N-[1,3-Dialkyl(aryl)-2-oxoimidazolidin-4-ylidene]-aryl(alkyl)sulphonamides as Novel Selective Human Cannabinoid Type 2 Receptor (hCB2R) Ligands; Insights into the Mechanism of Receptor Activation/Deactivation” (Molecules, 2022).
# Columns and labels:
# human recombinant CB1R = target: T1, human recombinant CB1R (Homo sapiens, UniProt P21554); test: Competition binding assay, displacement of [3H]-CP-55,940 from membranes of HEK-293 cells overexpressing CB1R; details: for Ki: [3H]-CP-55,940 displacement, HEK-293 membranes, 90 min at 30 °C, Cheng-Prusoff, read-out: Ki hCB1R (µM ± S.E.); for inhibition at 10 µM: read-out: % Displacement/ Max. Conc. Tested, hCB1R
# T1 construct: purchased Perkin-Elmer, Italy; host or cells: HEK-293 cells (membranes)
# T1 sequence (P21554 whole entry): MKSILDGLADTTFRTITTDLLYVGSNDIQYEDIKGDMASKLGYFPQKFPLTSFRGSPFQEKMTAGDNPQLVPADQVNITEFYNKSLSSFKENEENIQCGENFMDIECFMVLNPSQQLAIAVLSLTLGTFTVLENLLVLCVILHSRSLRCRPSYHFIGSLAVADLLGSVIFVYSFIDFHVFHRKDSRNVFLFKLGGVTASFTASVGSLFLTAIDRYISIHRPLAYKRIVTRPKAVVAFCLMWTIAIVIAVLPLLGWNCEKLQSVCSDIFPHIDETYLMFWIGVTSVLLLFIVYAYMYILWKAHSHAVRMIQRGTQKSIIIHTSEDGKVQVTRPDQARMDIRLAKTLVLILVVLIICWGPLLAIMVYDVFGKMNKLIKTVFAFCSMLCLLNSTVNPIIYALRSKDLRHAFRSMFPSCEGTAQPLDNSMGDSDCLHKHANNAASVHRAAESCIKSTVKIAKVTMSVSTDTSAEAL
# Protocol: (§1) The binding affinities (Ki values) of the compounds for human recombinant hCB1R and hCB2R were determined as previously described, using SR144528 as a reference compound [30], and are reported in Table 1.
# (§2) Compound affinity for CB1R and CB2R was measured as previously reported. […] Competition curves were performed by displacing [^3H]-CP-55 940 with increasing concentrations of compounds (0.1 nM–10 or 25 μM). […] All compounds were tested following the procedure described by the manufacturer (Perkin-Elmer, Italy). Displacement curves were generated by incubating drugs with [^3H]-CP-55 940 for 90 min at 30 °C. Ki values were calculated by applying the Cheng−Prusoff equation to the IC50 values for the displacement of the bound radioligand by increasing concentrations of the test compound. Data represent the mean values of three independent experiments performed in duplicate and are expressed as the average of Ki (µM) ± standard deviation. Data were analyzed using PRISM.9.3 software (GraphPad Software Inc, San Diego, CA, USA).
# human CB2R = human CB2R (Homo sapiens, UniProt P34972); test: Competition binding assay, displacement of [3H]-CP-55,940 from membranes of HEK-293 cells overexpressing CB2R; set-up: purchased Perkin-Elmer, Italy; host or cells: HEK-293 cells (membranes); details: for Ki: [3H]-CP-55,940 displacement, HEK-293 membranes, 90 min at 30 °C, Cheng-Prusoff, read-out: Ki hCB2R (µM ± S.E.); for inhibition at 10 µM: max conc. tested 10 µM, read-out: % Displacement/ Max Conc. Tested, hCB2R (converted)
# Sequence of human CB2R (P34972 whole entry): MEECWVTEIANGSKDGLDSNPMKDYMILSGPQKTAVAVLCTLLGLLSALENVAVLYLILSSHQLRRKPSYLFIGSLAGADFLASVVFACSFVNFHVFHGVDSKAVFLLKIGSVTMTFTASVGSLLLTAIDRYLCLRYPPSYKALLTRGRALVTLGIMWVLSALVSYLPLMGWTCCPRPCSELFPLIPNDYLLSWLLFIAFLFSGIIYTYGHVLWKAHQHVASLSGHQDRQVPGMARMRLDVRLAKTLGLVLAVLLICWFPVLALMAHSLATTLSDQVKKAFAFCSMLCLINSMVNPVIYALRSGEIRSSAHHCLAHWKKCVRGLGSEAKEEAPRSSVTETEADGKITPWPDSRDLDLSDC
# Protocol: as §1, §2
Compound,melting point [°C],Ki (human recombinant CB1R) [µM],inhibition at 10 µM (human recombinant CB1R) [%],Ki (human CB2R) [µM],inhibition at 10 µM (human CB2R) [%]
"COCCN1C(=O)N(C(C)(C)C)CC1=NS(=O)(=O)c1ccc(Br)cc1 [Compound 11d, 4-Bromo-N-[1-tert-butyl-3-(2-methoxyethyl)-2-oxoimidazolidin-4-ylidene]benzenesulfonamide]",103.5 to 104,> 10,50.1,> 10,42.7
"COCCN1C(=O)N(C(C)(C)C)CC1=NS(=O)(=O)c1cccc(Br)c1 [Compound 11e, 3-Bromo-N-[1-tert-butyl-3-(2-methoxyethyl)-2-oxoimidazolidin-4-ylidene]benzenesulfonamide]",104 to 105,> 10,10,> 10,41.1
"COCCN1C(=O)N(C(C)(C)C)CC1=NS(=O)(=O)c1c(C)cc(C)cc1C [Compound 11f, N-[1-tert-Butyl-3-(2-methoxyethyl)-2-oxoimidazolidin-4-ylidene]-2,4,6-trimethylbenzene-1-sulfonamide]",141 to 143.5,> 10,55.7,3.45 ± 0.95,64.8
"COCCN1C(=O)N(C(C)(C)C)CC1=NS(=O)(=O)c1cccc2ccccc12 [Compound 11g, N-[1-tert-Butyl-3-(2-methoxyethyl)-2-oxoimidazolidin-4-ylidene]naphthalene-1-sulfonamide]",110.5 to 111,> 10,13.5,1.66 ± 0.2,78.7
"COCCN1C(=O)N(C(C)(C)C)CC1=NS(=O)(=O)c1ccc2ccccc2c1 [Compound 11h, N-[1-tert-Butyl-3-(2-methoxyethyl)-2-oxoimidazolidin-4-ylidene]naphthalene-2-sulfonamide]",129.5 to 130.5,> 10,45.3,> 10,40.1
"Cc1ccc(S(=O)(=O)N=C2CN(C34CC5CC(CC(C5)C3)C4)C(=O)N2CC2CC2)cc1 [Compound 12c, N-[1-Adamant-1-yl-3-cyclopropylmethyl-2-oxoimidazolidin-4-ylidene]-4-methyl-1-benzenesulfonamide]",188.5 to 189,> 10,34.6,> 10,20.6
"O=C1N(CC2CC2)C(=NS(=O)(=O)c2ccc(Br)cc2)CN1C12CC3CC(CC(C3)C1)C2 [Compound 12d, N-[1-Adamant-1-yl-3-cyclopropylmethyl-2-oxoimidazolidin-4-ylidene]-4-bromo-1-benzenesulfonamide]",176 to 176.5,> 10,47.9,> 10,32.5
"Cc1cc(C)c(S(=O)(=O)N=C2CN(C34CC5CC(CC(C5)C3)C4)C(=O)N2CC2CC2)c(C)c1 [Compound 12f, N-[1-Adamant-1-yl-3-cyclopropylmethyl-2-oxoimidazolidin-4-ylidene]-2,4,6-trimethyl-1-benzenesulfonamide]",166.5 to 167.5,> 10,59.2,> 10,40.2
"O=C1N(CC2CC2)/C(=N/S(=O)(=O)c2cccc3ccccc23)CN1C12CC3CC(CC(C3)C1)C2 [Compound 12g, N-[1-Adamant-1-yl-3-cyclopropylmethyl-2-oxoimidazolidin-4-ylidene]naphtalene-1-sulfonamide]",188.5 to 189,> 10,12.8,> 10,45.6
"CC(C)N1CC(=NS(=O)(=O)c2cccc3ccccc23)N(CC2CC2)C1=O [Compound 13, N-[3-(cyclopropylmethyl)-2-oxo-1-(propan-2-yl)imidazolidin-4-ylidene]naphthalene-1-sulfonamide]",–,> 10,4.63,0.8 ± 0.02,78.3
"Cc1ccc(S(=O)(=O)N=C2CN(C(C)(C)C)C(=O)N2CC(C)C)cc1 [Compound 14, N-[1-tert-Butyl-3-(2-methylpropyl)-2-oxoimidazolidin-4-ylidene]-4-methylbenzene-1-sulfonamide]",–,> 10,0.02,> 10,47.8
"CC(C)(C)N1C(=O)N(CC2CC2)CC1=NS(=O)(=O)c1ccccc1 [Compound 15, N-[3-tert-Butyl-1-(cyclopropylmethyl)-2-oxoimidazolidin-4-ylidene]benzenesulfonamide]",–,> 10,0.01,1.61 ± 0.16,73.9
